Experimental data taken from patent US20250332173A1, “COMPOUNDS AND METHODS FOR MODULATING NUCLEIC ACID SPLICING” (REMIX THERAPEUTICS INC., priority 2021, published 2025).
Read-outs that look alike come from different tables or passages of the source.

What was measured:
MYB mRNA = experiment: RT-qPCR splicing assay, MYB canonical junction (CJ) and alternative junction (AJ) mRNA; type: cell-based, human; conditions: Homo sapiens; for AC50: increase in MYB alternative junction (AJ) mRNA, read-out: MYB AJ AC50
Outline: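 Splicing switches were read by TaqMan RT-qPCR on lysates, quantifying exon-exon junctions of the canonical and alternative-exon isoforms. Lysates came from K562 (GAPDH/GUSB reference) or A673 (PPIA reference) cells exposed 24 h to compound in 11 threefold steps from 10 uM, with DMSO ≤0.25%.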

SMN2 mRNA = experiment: RT-qPCR splicing assay, SMN2 canonical junction (CJ) mRNA; type: cell-based, human; conditions: Homo sapiens
Outline: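 Canonical exon-exon junction transcript levels measured by one-step RT-qPCR of cell lysates, normalized to a housekeeping gene (GAPDH, GUSB or PPIA). Cells used were A673 or K562, exposed for 24 h to compound in 11-point, 3-fold series from 10 uM, with final DMSO at or below 0.25%.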

[1] = canonical junction qPCR panel, Table 5, read-out: MYB (decrease in CJ mRNA levels, IC50)
[2] = decrease in MYB canonical junction (CJ) mRNA, RT-qPCR, read-out: MYB CJ IC50
[3] = canonical junction qPCR panel, Table 5, read-out: SMN2 (decrease in CJ mRNA levels, IC50)
[4] = Table 5 panel, canonical junction qPCR, compound concentration having 50% response in CJ decrease, read-out: MYB IC50 (decrease in CJ mRNA levels)
[5] = Table 5 panel, canonical junction qPCR, compound concentration having 50% response in CJ decrease, read-out: SMN2 IC50 (decrease in CJ mRNA levels)

SMILES | IC50 (MYB mRNA; [1]) | IC50 (MYB mRNA; [2]) | AC50 (MYB mRNA; RT-qPCR) | IC50 (SMN2 mRNA; [3]) | IC50 (MYB mRNA; [4]) | IC50 (SMN2 mRNA; [5])
Cc1cn2cc(-c3cc(F)c4c(=O)n([C@@H]5CNC[C@H]5F)ccc4c3)cc(F)c2n1 [Compound 1456] | 0.1 to 1 µM | 0.1 to 1 µM | 0.1 to 1 µM | 0.1 to 1 µM | – | –
Cc1cn2cc(-c3cc4ccn(C5CCNCC5)c(=O)c4cn3)cc(F)c2n1 [Compound 1196] | – | < 0.1 µM | < 0.1 µM | – | < 0.1 µM | < 0.1 µM
Cc1c(O)c(-c2ncc3c(=O)n(C45CCC(N)(CC4)C5)ccc3n2)cc2cn(C)nc12 [Compound 1428] | 0.1 to 1 µM | 0.1 to 1 µM | 0.1 to 1 µM | < 0.1 µM | – | –
Cc1c(O)c(-c2ccc3c(=O)n(C4CCNCC4)cc(C)c3n2)cc2cn(C)nc12 [Compound 1284] | < 0.1 µM | < 0.1 µM | < 0.1 µM | < 0.1 µM | – | –
Cc1cn(C2CCNCC2)c(=O)c2ccc(-c3cc4cn(C)nc4c(F)c3O)nc12 [Compound 1285] | < 0.1 µM | < 0.1 µM | < 0.1 µM | < 0.1 µM | – | –
Cn1cc2cc(-c3ccc4c(=O)n([C@@H]5CCNC5)ccc4n3)c(O)c(F)c2n1 [Compound 1452, 2-(7-fluoro-6-hydroxy-2-methyl-indazol-5-yl)-6-[(3R)-pyrrolidin-3-yl]-1,6-naphthyridin-5-one] | < 0.1 µM | 0.1 to 1 µM | < 0.1 µM | < 0.1 µM | – | –
Cc1cn2cc(-c3ncc4c(=O)n(C5CCNC5)ccc4n3)cc(C#N)c2n1 (centres unmarked) [Compound 1221] | – | 0.1 to 1 µM | 0.1 to 1 µM | – | 0.1 to 1 µM | 0.1 to 1 µM
Cn1cc2cc(-c3ccc4c(=O)n(C5CCNC6(CC6)C5)ncc4n3)c(O)cc2n1 (centres unmarked) [Compound 1306] | 0.1 to 1 µM | 0.1 to 1 µM | 0.1 to 1 µM | < 0.1 µM | – | –
Cc1cc(-c2cc3ccn(C4CCN(C)CC4)c(=O)c3cn2)cc2cn(C)nc12 [Compound 1206, 6-(2,7-dimethyl-2H-indazol-5-yl)-2-(1-methylpiperidin-4-yl)-2,7-naphthyridin-1(2H)-one] | – | 1 to 10 µM | 0.1 to 1 µM | – | 0.1 to 1 µM | < 0.1 µM
Cc1c(O)c(-c2ncc3c(=O)n(C4CCC(N)CC4)ccc3n2)cc2cn(C)nc12 (centres unmarked) [Compound 1300, 6-((1s,4s)-4-aminocyclohexyl)-2-(6-hydroxy-2,7-dimethyl-2H-indazol-5-yl)pyrido[4,3-d]pyrimidin-5(6H)-one] | 0.1 to 1 µM | 0.1 to 1 µM | 0.1 to 1 µM | < 0.1 µM | – | –
Cc1cn2cc(-c3ncc4c(=O)n(C5CCNC5)ccc4n3)c(O)c(C)c2n1 (centres unmarked) [Compound 1227] | – | 1 to 10 µM | 1 to 10 µM | – | 1 to 10 µM | 0.1 to 1 µM
Cc1c(O)c(-c2ncc3c(=O)n([C@@H]4CCN[C@H](C)C4)ccc3n2)cc2cn(C)nc12 [Compound 1434, 2-(6-hydroxy-2,7-dimethyl-indazol-5-yl)-6-(2-methyl-4-piperidyl)pyrido[4,3-d]pyrimidin-5-one] | 0.1 to 1 µM | 0.1 to 1 µM | 0.1 to 1 µM | < 0.1 µM | – | –
Cc1cn2cc(-c3ncc4c(=O)n(C5CCNC5)ccc4n3)cc(F)c2n1 (centres unmarked) [Compound 1215] | – | 1 to 10 µM | 0.1 to 1 µM | – | 0.1 to 1 µM | < 0.1 µM
Cc1c(O)c(-c2ncc3c(=O)n(C4CCNCC4)cc(C)c3n2)cc2cn(C)nc12 [Compound 1191] | – | < 0.1 µM | < 0.1 µM | – | < 0.1 µM | < 0.1 µM
Cc1c(O)c(-c2ncc3c(=O)n(C4C[C@@H](C)N[C@H](C)C4)ccc3n2)cc2cn(C)nc12 (stereo partly drawn) [Compound 1454, 6-[(2R,6R)-2,6-dimethyl-4-piperidyl]-2-(6-hydroxy-2,7-dimethyl-indazol-5-yl)pyrido[4,3-d]pyrimidin-5-one] | 0.1 to 1 µM | 0.1 to 1 µM | 0.1 to 1 µM | < 0.1 µM | – | –
Cc1c(O)c(-c2ncc3c(=O)n(C4C[C@H](C)N[C@@H](C)C4)ccc3n2)cc2cn(C)nc12 (stereo partly drawn) [Compound 1455, 6-[(2S,6S)-2,6-dimethyl-4-piperidyl]-2-(6-hydroxy-2,7-dimethyl-indazol-5-yl)pyrido[4,3-d]pyrimidin-5-one] | < 0.1 µM | < 0.1 µM | < 0.1 µM | < 0.1 µM | – | –
Cn1cc2nc(-c3ccc4c(=O)n(C5CCNCC5)ccc4n3)c(O)cc2n1 [Compound 1296] | < 0.1 µM | < 0.1 µM | < 0.1 µM | < 0.1 µM | – | –
